Where two headings read alike, the source gives them in different places.
How the values were obtained:
Type in all cases: in vitro ADME
OATP1B1 [1] = biological target: T1, OATP1B1 (Homo sapiens, UniProt Q9Y6L6); assay: OATP1B1 uptake transporter inhibition in MDCKII or HEK293 cells; design: expressed in transfected cells; host or cells: MDCKII or HEK293; details: substrate Rosuvastatin (1 μM)
T1 sequence (Q9Y6L6 1-691): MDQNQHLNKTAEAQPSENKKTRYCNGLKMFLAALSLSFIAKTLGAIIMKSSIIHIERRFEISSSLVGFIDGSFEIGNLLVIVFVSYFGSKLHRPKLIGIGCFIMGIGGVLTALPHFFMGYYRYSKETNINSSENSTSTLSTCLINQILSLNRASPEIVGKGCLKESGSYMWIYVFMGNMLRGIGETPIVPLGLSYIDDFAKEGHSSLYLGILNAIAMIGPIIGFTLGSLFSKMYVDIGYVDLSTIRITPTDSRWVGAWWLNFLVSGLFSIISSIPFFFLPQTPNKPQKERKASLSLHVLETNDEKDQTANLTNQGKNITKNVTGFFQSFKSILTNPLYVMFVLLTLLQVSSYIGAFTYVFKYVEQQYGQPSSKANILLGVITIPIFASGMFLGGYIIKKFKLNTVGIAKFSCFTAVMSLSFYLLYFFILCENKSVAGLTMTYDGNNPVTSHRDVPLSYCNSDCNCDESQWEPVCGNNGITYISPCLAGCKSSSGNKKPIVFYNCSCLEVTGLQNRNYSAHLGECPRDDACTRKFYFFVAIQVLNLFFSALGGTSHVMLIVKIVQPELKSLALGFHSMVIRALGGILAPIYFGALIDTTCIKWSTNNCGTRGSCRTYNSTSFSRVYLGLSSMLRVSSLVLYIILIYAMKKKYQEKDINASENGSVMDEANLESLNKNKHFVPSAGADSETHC
Procedure: In addition, the inhibition potential against efflux transporters (P-glycoprotein (Pgp) and breast cancer resistance protein (BCRP)) and uptake transporters (MATE1, MATE2-K, OATP1B1, OATP1B3, OAT1, OAT3, and OCT2) was assessed using single transporter over-expressed cell monolayers (MDCK II or HEK293) or inside-out vesicles.
The potential of Compound A to inhibit Pgp or BCRP was tested for bidirectional transport of the probe substrates in Pgp or BCRP-expressed MDCKII and control monolayers at Compound A concentrations of 0.07-5 μM. Pgp and BCR inhibition were tested in inside-out membrane vesicles prepared from HEK293 overexpressing human Pgp and BCR at concentrations of 0.01-9 μM Compound A in the presence of 4 mM MgATP or MgAMP.

[2] = Metabolite profiling / stability in human hepatocyte suspension
Procedure: (§1) Metabolite profiling was conducted in incubations of Compound A (2 and 10 μM) with HLM (up to 60 min), human hepatocyte suspension (up to 240 min) and human plasma (up to 360 min). In addition, Compound A (2 μM) was incubated with recombinant human CYP enzymes CYP1A2, CYP2A6, CYP2B6, CYP2C8, CYP2C9, CYP2C19, CYP2D6, CYP2E1, CYP3A4 and CYP3A5.
(§2) The DDI potential of Compound A as a victim via CYP mediated pathways was examined in HLM, human hepatocyte suspensions, and human recombinant CYP enzymes.

CYP2C8 = biological target: T2, CYP2C8 (Homo sapiens, UniProt P10632); assay: Direct and time-dependent CYP2C8 inhibition in pooled human liver microsomes; details: pooled HLM, substrate Amodiaquine 2 μM
T2 construct: evaluated in pooled human liver microsomes (HLM); from tissue; host or cells: pooled human liver microsomes
Procedure: The induction potential of Compound A on CYP enzymes was assessed in cryopreserved human hepatocytes from three donors. Following treatment for with Compound A at concentrations of 0.03-30 μM for 48 hours, mRNA levels for CYP1A2, 2B6, 2C8, 2C9, 2C19, and 3A4 were determined by semiquantitative real-time polymerase chain reaction (PCR). Test article concentrations during 24-hour incubation were determined. The potential of Compound A to cause direct and time-dependent inhibition (TDI) of the activities of CYP1A2, 2B6, 2C8, 2C9, 2C19, 2D6, and 3A4 was evaluated in pooled human liver microsomes (HLM) at 0.2-15 μM. Probe substrate concentrations around Km were used for direction inhibition and initial TDI assays. For TDI assay, Compound A was pre-incubated with pooled HLM with and without NADPH for 30 minutes prior to incubation with a single concentration of probe substrate.

OATP1B1 [3] = biological target: T1, OATP1B1; assay: OATP1B1 uptake transporter substrate assay; design: expressed in transfected cells; details: OATP1B1-expressing vs control cell
Procedure: The potential of Compound A to act as an efflux transporter Pgp and BCRP as well as uptake transporter OATP1B1 and 1B3 were assessed in Caco-2 and single transporter over-expressed HEK29 cells, respectively.
The potential of Compound A to act as a substrate for Pgp and BCRP was examined in Caco-2 cells at the concentrations of 0.075, 0.75, 3.75 and 7.5 μM containing 1% of BSA. After 120 min incubation, the bidirectional permeability of Compound A was determined by LC-MS/MS. The involvement of Compound A as a substrate of OATP1B1 and OATP1B3 was assessed in the uptake transporter substrate assays at 4 concentrations (0.1, 0.5, 1 and 5 μM). Compound A in cell lysates was determined by LC-MS/MS.

CYP3A5 = CYP3A5 (Homo sapiens, UniProt P20815); assay: Incubation with recombinant human CYP3A5
Procedure: as §1, §2

T2 sequence (P10632 whole entry): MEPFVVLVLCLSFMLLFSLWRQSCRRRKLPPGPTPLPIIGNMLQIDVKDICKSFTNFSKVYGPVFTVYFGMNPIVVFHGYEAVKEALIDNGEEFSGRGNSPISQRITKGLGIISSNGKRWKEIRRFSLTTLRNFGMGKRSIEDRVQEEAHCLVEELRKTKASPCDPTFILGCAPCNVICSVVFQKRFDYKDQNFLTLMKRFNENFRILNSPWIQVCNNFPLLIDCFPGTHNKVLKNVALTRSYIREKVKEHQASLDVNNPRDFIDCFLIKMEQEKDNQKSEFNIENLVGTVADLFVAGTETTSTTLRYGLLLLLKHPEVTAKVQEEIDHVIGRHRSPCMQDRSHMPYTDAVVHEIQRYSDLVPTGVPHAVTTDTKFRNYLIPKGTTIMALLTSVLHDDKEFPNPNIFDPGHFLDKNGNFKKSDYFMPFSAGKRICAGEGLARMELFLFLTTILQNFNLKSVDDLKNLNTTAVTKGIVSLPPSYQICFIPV
Chain of CYP3A5 (P20815 whole entry): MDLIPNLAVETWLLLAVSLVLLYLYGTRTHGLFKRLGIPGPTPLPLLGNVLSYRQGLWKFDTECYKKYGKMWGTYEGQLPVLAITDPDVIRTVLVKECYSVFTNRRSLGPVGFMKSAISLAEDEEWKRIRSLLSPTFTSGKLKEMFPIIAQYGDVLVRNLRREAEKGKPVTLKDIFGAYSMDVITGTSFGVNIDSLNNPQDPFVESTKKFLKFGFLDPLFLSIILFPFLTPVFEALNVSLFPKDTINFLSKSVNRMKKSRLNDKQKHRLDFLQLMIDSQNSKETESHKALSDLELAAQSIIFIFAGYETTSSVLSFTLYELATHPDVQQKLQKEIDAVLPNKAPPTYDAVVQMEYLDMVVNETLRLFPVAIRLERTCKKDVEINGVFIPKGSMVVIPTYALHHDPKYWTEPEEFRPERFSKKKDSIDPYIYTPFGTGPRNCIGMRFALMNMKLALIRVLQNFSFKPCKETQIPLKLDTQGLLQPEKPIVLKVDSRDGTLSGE

IC50 (OATP1B1 [1]): > 3.75 µM
% Parent at 0 Min, HH at 240 min ([2]; human hepatocyte suspensions, 240 min): 86.9%
Stability in human hepatocyte suspension ([2]; up to 240 min): relatively stable
IC50 (CYP2C8; read-out: IC50, 30 min Pre-incubation): > 15 µM
IC50 (CYP2C8; read-out: IC50, No Pre-incubation): > 15 µM
Fold accumulation, OATP1B1 (OATP1B1 [3]): < 2 fold
Substrate for OATP1B1 (OATP1B1 [3]; 0.1, 0.5, 1 and 5 μM): not a substrate
Loss of Compound A in CYP3A5 (CYP3A5): ≤ 23%
SMILES: COc1cc(O[C@H]2C(C)(C)[C@H](NC(=O)c3ccc(N4CCC(CN5CCN(c6ccc(C(=O)N[C@H]7CCC(=O)NC7=O)c(F)c6)CC5)CC4)cc3)C2(C)C)ccc1C#N [Compound A, 4-(4-((1-(4-(((1R,3R)-3-(4-cyano-3-methoxyphenoxy)-2,2,4,4-tetramethylcyclobutyl)carbamoyl)phenyl)piperidin-4-yl)methyl)piperazin-1-yl)-N—((S)-2,6-dioxopiperidin-3-yl)-2-fluorobenzamide]

Reference: patent US20250009737A1, “COMPOUNDS AND METHODS FOR THE TARGETED DEGRADATION OF ANDROGEN RECEPTOR” (Arvinas Operations, Inc., priority 2023, published 2025)
